According to BindingDB's records for doi:10.1021/jm00011a005 (University of Minnesota, 1995):

Biological target: Aldehyde dehydrogenase (Saccharomyces cerevisiae)
Assay: In vitro inhibition against yeast Aldehyde dehydrogenase

Row | IC50 | SMILES
1 | > 1000 µM | O=C1c2ccccc2S(=O)(=O)N1O [2-Hydroxy-1,1-dioxo-1,2-dihydro-1lambda*6*-benzo[d]isothiazol-3-one]
2 | 240 µM | CC(=O)ON1C(=O)c2ccccc2S1(=O)=O [Acetic acid 1,1,3-trioxo-1,3-dihydro-1lambda*6*-benzo[d]isothiazol-2-yl ester]
